Experiments:
[1] = molecular target: T1, protein-farnesyl transferase (PFT) (Rattus norvegicus, UniProt Q02293+Q04631); assay: Inhibitory activities against protein-farnesyl transferase (PFT); format: biochemical; details: PFT derived from rat brain; prenyl acceptor H-ras protein or biotin-added Lys-Thr-Ser-Cys-Val-Ile-Met; 37° C., 20 minutes; read-out: 50% inhibitory concentrations (IC50) against PFT activities
T1 construct: PFT derived from rat brain (Q-sepharose fraction); from tissue; host or cells: rat brain (soluble fraction, 30-50% ammonium sulfate cut, Q-Sepharose fraction)
Protocol: Pharmacological Test 1 (Inhibitory activities against protein-farnesyl transferase)
PFT was separated in such a manner that a soluble fraction of rat s brain was fractionated by means of 30%-50% saturated ammonium sulfate, further dialyzed and then subjected to column chromatography by Q-sepharose™ (manufactured by Pharmacia) (Reiss et al., Cell, vol. 62, pp. 81-88 (1990)).
(2) Method for measuring PFT activities
Measurement of PFT activities was conducted by using, as a prenyl acceptor, H-ras protein or a peptide corresponding to the C-terminal 7 amino acid residues of K-rasB protein which had biotin added to the N-terminal (biotin-added Lys-Thr-Ser-Cys-Val-Ile-Met) and, as a prenyl donor, [^3 H]-labeled farnesyl pyrophosphate (FPP) (Reiss et al., Methods: A Companion to Methods in Enzymology, vol. 1, No. 3, pp. 241-245 (1990)). […]
The enzymatic reaction product containing H-ras protein as the prenyl acceptor, was analyzed by SDS-PAGE (sodium dodecyl sulfate/polyacrylamide gel electrophoresis). […]
The measurement of PFT activities using H-ras protein as the prenyl receptor, was also analyzed by a rapid separate method. […]

[2] = test system: farnesyl-modification of Ras protein in NIH3T3 cells transformed by activated ras gene; assay: Inhibitory activities against farnesyl-modification of Ras protein in NIH3T3 cells transformed by activated ras gene; format: cell-based; details: Mus musculus, 24 hours, read-out: 50% inhibitory concentrations (IC50) against farnesyl-modification of Ras protein
Protocol: PHARMACOLOGICAL TEST EXAMPLE 2 (Inhibitory activities against farnesyl-modification of Ras protein)
Using the compounds of the present invention, inhibitory activities against farnesyl-modification of Ras protein in NIH3T3 cells transformed by activated ras gene, were measured.
The NIH3T3 cells transformed by activated ras gene, were seeded on a culture plate and cultured for 3 days. Then, a compound of the present invention in a predetermined concentration was added to the culture. In accordance with the method disclosed in J. Biol. Chem., vol. 268, p. 18415 (1993), the cells were cultured for 24 hours and then taken off from the plate, and the cells were dissolved. After centrifugal separation for 5 minutes under 12000 g, the supernatant was used as a cell extract. The cell extract was subjected to SDS polyacrylamide gel electrophoresis to separate farnesyl-modified Ras protein and non-farnesyl-modified Ras protein. The protein on the gel was transferred onto a nitrocellulose membrane, and an anti-Ras protein antibody was reacted as a probe (primary antibody reaction). An anti-primary antibody, a peroxidase inclusion (secondary antibody), was reacted, and then Ras protein was detected by a chemical fluorescence enhancing kit. The proportion of non-farnesyl-modified Ras protein was quantified by a densitometer and taken as the inhibitory activity. […]

SMILES | IC50 [1] [nM] | IC50 [2] [nM]
C[C@H]([C@H](Cc1ccc(C(=O)Nc2ccccc2)o1)c1ccc2c(c1)OCO2)N(C/C=C/c1ccccc1)C(=O)C(O)=C(CC(=O)O)C(=O)OC(C)(C)C [Example 1, 3-(tert-butoxycarbonyl)-4-hydroxy-4-[N-[(1R,2R)-1-methyl-2-(3,4-methylenedioxyphenyl)-3-{5-(phenylcarbamoyl)-2-furyl}propyl]-N-{(E)-3-phenyl-2-propenyl}carbamoyl]-3-butenoic acid] | 0.74 | 1.3
CCOC(=O)C(CC(=O)O)=C(O)C(=O)N(CC#Cc1ccccc1)[C@H](C)[C@H](Cc1ccc(C(=O)Nc2ccccc2)o1)c1ccc2c(c1)OCO2 (relative stereo) [Example 17, 3-(ethoxycarbonyl)-4-hydroxy-4-[N [(1RS,2RS)-1-methyl-2-(3,4-methylenedioxyphenyl)-3-{5-(phenylcarbamoyl)-2-furyl}propyl]-N-(3-phenyl-2-propynyl)carbamoyl]-3-butenoic acid] | 1.7 | 4.3

Reference: patent US5981573A, “N,N-disubstituted amic acid derivatives” (Banyu Pharmaceutical Co., Ltd., priority 1996, dated 1999)
